Measured values from patent US8710099B2, “Treatment of cancer using the sodium salt of a benzoic acid derivative” (New York University, priority 2009, dated 2014).

Columns and labels:
Normal human melanocytes = assay: Normal melanocyte proliferation, MTT assay; assay type: cell-based; conditions: 50 μg/mL, 24 hours; FIG. 12B
Protocol: (§1) In Example 6, the differential effects of C-45-Na on normal human melanocytes, normal human keratinocytes and human melanoma cells were examined Normal human melanocytes, keratinocytes and M21 melanoma cells were allowed to proliferate in the presence or absence of C-45-Na (50 μg/mL) for 24 hours. Proliferation was monitored using a commercially available MTT assay (Millipore).

M21 melanoma cells = assay: M21 melanoma tumor growth in nude mice; assay type: in vivo
Protocol: Briefly, M21 melanoma cells (4.0×10^6) were injected subcutaneously in nude mice. Following establishment of palpable tumors (4 days), mice were either left untreated or treated daily by i.p injection with DMSO (50 μl/day), or with C-45-Na (50 μl/day) or C-45-HCl (50 μl/day) at a concentration range of 1-100 ug/day. Tumor size was monitored by caliper measurements and tumor volumes were estimated using the formula (L^2×W/2) where “L” represents length, and “W” represents width.
The effects of C45-Na on M21 melanoma tumor growth in vivo were studied. Briefly, M21 melanoma cells (4.0×10^6) were injected subcutaneously in nude mice. Following establishment of palpable tumors (4 days), mice were either left untreated or treated daily by i.p injection with DMSO (50 μl/day), or with C-45-Na concentrations of 0.1, 0.5, or 1.0 μg/day. Tumor size was monitored by caliper measurements and tumor volumes were estimated using the formula (L^2×W/2) where “L” represents length, and “W” represents width.
In experiment 11, an activity comparison between C-45-Na (1.0 μg) and C45-HCl (1.0 μg) on the in vivo growth of M21 tumors was examined following daily treatment after 21 days. Tumor size was monitored by caliper measurements and tumor volumes were estimated using the formula (L^2×W/2) where “L” represents length, and “W” represents width.

[1] = system: Panc-1 human pancreatic carcinoma cells; assay: Panc-1 pancreatic carcinoma proliferation, MTT assay; assay type: cell-based; conditions: 4.7, 9.3, 17.3, 37.5, and 75 μg/mL, 3 days; FIG. 14B
Protocol: Panc-1 human pancreatic carcinoma cells were allowed to proliferate over a 3-day time course in the presence or absence of a series of concentrations of C-45-Na (4.7, 9.3, 17.3, 37.5, and 75 μg/mL) of or C-45-HCl. DMSO control samples lacking C-45-Na and were also prepared. Treated cells (1,500/well) were added to individual wells of a cell culture microtiter plate and allowed to grow over a time course of 3 days. Proliferation was monitored using a commercially available MTT assay (Millipore). Data points represent the mean±standard deviations from triplicate wells.

C8161 melanoma cells = assay: Melanoma cell morphology; assay type: cell-based, human; conditions: 100 μg/mL, 24 hours; FIG. 11B
Protocol: (§2) Human M21 melanoma cells or C8161 melanoma cells were incubated in the presence of 100 μg/mL of C-45-Na or C-45-HCl for 24 hours. DMSO control samples lacking C-45-Na and C-45-HCl were also prepared.

[2] = system: A375 human melanoma cells; assay: A375 melanoma cell proliferation, MTT assay; assay type: cell-based; conditions: 100 μg/mL, 0.5% serum, 3 days; FIG. 13B
Protocol: (§3) C8161 and A375 human melanoma cells were washed and re-suspended in proliferation buffer containing 0.5% serum in the presence of 100 μg/mL of C-45-Na or C-45-HCl. DMSO control samples lacking C-45-Na and C-45-HCl were also prepared. Treated cells (1,500/well) were added to individual wells of a cell culture microtiter plate and allowed to grow over a time course of 3 days. Proliferation was monitored using a commercially available MTT assay (Millipore). Data points represent the mean±standard deviations from triplicate wells.

[3] = system: normal human keratinocytes; assay: Normal keratinocyte proliferation, MTT assay; assay type: cell-based; conditions: 50 μg/mL, 24 hours; FIG. 12C
Protocol: as §1

Human M21 melanoma cells [4] = assay: M21 melanoma cell proliferation, MTT assay; assay type: cell-based
Protocol: as §3, with “Human M21 melanoma” for “C8161 and A375 human melanoma”, “containing 1.0%” for “containing 0.5%”, “presence or absence” for “presence”, “100 ng/mL” for “100 μg/mL”, “of C-45-Na,” for “of C-45-Na”, “C-45-Na or” for “C-45-Na and”
as §3, with “Human M21” for “C8161 and A375 human”, “1.0%” for “0.5%”, “presence or absence” for “presence”, “ng/mL” for “μg/mL”, “C-45-Na,” for “C-45-Na”, “C-45-HCl.” for “C-45-HCl. DMSO control samples lacking C-45-Na and C-45-HCl were also prepared.”
as §3, with “Human M21” for “C8161 and A375 human”, “50” for “100”, “C-45-Na, C-45-K,” for “C-45-Na”
as §1

[5] = system: MDA-MB 231 human breast carcinoma cells; assay: MDA-MB 231 breast carcinoma proliferation, MTT assay; assay type: cell-based; conditions: 100 μg/mL, 0.5% serum, 3 days; FIG. 14A
Protocol: as §3, with “MDA-MB 231” for “C8161 and A375”, “breast carcinoma” for “melanoma”

[6] = system: C8161 human melanoma cells; assay: C8161 melanoma cell proliferation, MTT assay; assay type: cell-based; conditions: 100 μg/mL, 0.5% serum, 3 days; FIG. 13A
Protocol: as §3

Human M21 melanoma cells [7] = assay: Melanoma cell morphology; assay type: cell-based; conditions: 100 μg/mL, 24 hours; FIG. 11A
Protocol: as §2

Structure (SMILES): C=CCNc1ccc(C(=O)[O-])cc1.[Na+] [C-45-Na, Sodium 4-allylaminobenzoate]
- effect on proliferation of normal human melanocytes (Normal human melanocytes): very little effect
- inhibition of M21 melanoma tumor growth (M21 melanoma cells; Experiment 9: daily i.p., 1.0 μg/day): Significant inhibition
- inhibition of tumor growth (M21 melanoma cells; Experiment 10: daily i.p., 0.1, 0.5, or 1.0 μg/day, days 8, 14, and 21 (P<0.05), FIG. 16): significant inhibition of tumor growth
- inhibition of tumor growth (M21 melanoma cells; Experiment 11: 1.0 μg daily, day 21 (P<0.05), FIG. 17): significant inhibition of tumor growth
- panc-1 cell proliferation [1]: very potent anti-proliferative activity
- cell morphology, C8161 (C8161 melanoma cells): significant cell rounding
- A375 tumor cell proliferation [2]: very potent anti-proliferative activity
- effect on proliferation of normal human keratinocytes [3]: very little effect
- selectivity, tumor cells versus normal human cells (Human M21 melanoma cells [4]; 50 μg/mL, 24 hours, M21 vs melanocytes and keratinocytes): selective for tumor cell proliferation rather than normal human cells
- M21 tumor cell proliferation (Human M21 melanoma cells [4]; Experiment 1: 100 ng/mL, 1.0% serum, 3 days, FIG. 6): very potent anti-proliferative activity
- M21 tumor cell proliferation (Human M21 melanoma cells [4]; Experiment 2: 100 ng/mL, 1.0% serum, 3 days, FIG. 7): very potent anti-proliferative activity
- M21 tumor cell proliferation (Human M21 melanoma cells [4]; Experiment 3: 50 μg/mL, 0.5% serum, 3 days, FIG. 15): very potent anti-proliferative activity
- M21 tumor cell proliferation (Human M21 melanoma cells [4]; Experiment 8: 50 μg/mL, 24 hours, FIG. 12A): very potent anti-proliferative activity
- MDA-MB 231 cell proliferation [5]: very potent anti-proliferative activity
- C8161 tumor cell proliferation [6]: very potent anti-proliferative activity
- cell morphology, M21 (Human M21 melanoma cells [7]): significant cell rounding
